pKd, pKi: −log10 of the molar value. Counter-ions that a name gives are not always drawn. Like-named read-outs stand apart in the source and are kept apart here.
Tests used:
human D2L receptors [1] = target: T1, human D2L receptors (Homo sapiens, UniProt P14416); assay: Competition kinetic binding with PPHT-red tracer (TR-FRET, Motulsky-Mahan); settings: for t 1/2: dissociation half-life from k off
human D2L receptors [2] = target: T1, human D2L receptors; assay: biochemical
human D2L receptors [3] = target: T1, human D2L receptors; assay: Equilibrium competition binding with PPHT-red (TR-FRET)
human D2L receptors [4] = target: T1, human D2L receptors
D2R = D2R (Homo sapiens, UniProt P14416); assay: biochemical
Chain of D2R (P14416 whole entry): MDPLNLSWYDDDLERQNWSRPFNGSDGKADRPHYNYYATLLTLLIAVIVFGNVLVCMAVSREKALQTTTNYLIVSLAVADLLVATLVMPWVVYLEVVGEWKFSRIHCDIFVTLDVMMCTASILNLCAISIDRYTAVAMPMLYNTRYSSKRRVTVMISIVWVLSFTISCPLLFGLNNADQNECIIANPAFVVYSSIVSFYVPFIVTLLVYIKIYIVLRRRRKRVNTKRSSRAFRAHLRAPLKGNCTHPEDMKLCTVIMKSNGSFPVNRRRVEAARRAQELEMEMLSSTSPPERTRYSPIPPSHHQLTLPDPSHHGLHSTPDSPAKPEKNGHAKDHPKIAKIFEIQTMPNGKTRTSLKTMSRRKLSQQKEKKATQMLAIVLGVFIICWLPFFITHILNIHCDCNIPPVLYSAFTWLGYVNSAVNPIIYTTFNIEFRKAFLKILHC

[5] = cited from earlier work
[6] = clinical; cited from earlier work
[7] = 37 °C, 100 μM GppNHp, 12.5 nM PPHT-red tracer, CHO-D2L membranes, mean ± s.e.m., four experiments

T1 sequence (P14416 whole entry): as above

Molecule	t 1/2 (human D2L receptors [1]) [min]	pKd (human D2L receptors [2])	pKi (human D2L receptors [3])	further results
CN1CC2c3ccccc3Oc3ccc(Cl)cc3C2C1 (centres unmarked) [Asenapine, asenapine maleate]	0.75			
O=C(CCCN1CC=C(n2c(=O)[nH]c3ccccc32)CC1)c1ccc(F)cc1 [Droperidol, droperidol]	1.82	9.71	9.99	k off (human D2L receptors [1]; [7]): 0.38 ± 0.04 min⁻¹; k on (human D2L receptors [1]; [7]): 2.01 ± 0.38 × 10^9 M^−1 min^−1
OCCN1CCN(CCC=C2c3ccccc3Sc3ccc(C(F)(F)F)cc32)CC1 [Flupenthixol, flupenthixol dihydrochloride]		9.67	9.68	t 1/2 (human D2L receptors [4]): 9.63 min; k off (human D2L receptors [1]): 0.072 ± 0.010 min⁻¹; k on (human D2L receptors [1]): 3.50 ± 0.72 × 10^8 M^−1 min^−1
OCCN1CCN(CCCN2c3ccccc3Sc3ccc(C(F)(F)F)cc32)CC1 [Fluphenazine, fluphenazine dihydrochloride]	17.33			
CN1CCN(C2=Nc3ccccc3Oc3ccc(Cl)cc32)CC1 [Loxapine, loxapine succinate]	0.32			
CCc1c(C)[nH]c2c1C(=O)C(CN1CCOCC1)CC2 (centres unmarked) [Molindone, molindone hydrochloride]	0.41	7.69	7.57	k off (D2R): 0.0282 s⁻¹; k off (human D2L receptors [1]; [7]): 1.69 ± 0.45 min⁻¹; k on (human D2L receptors [1]; [7]): 8.69 ± 2.6 × 10^7 M^−1 min^−1
CNc1cc(OC)c(C(=O)NC2CCN(Cc3ccccc3)C2C)cc1Cl (centres unmarked) [Nemonapride, nemonapride]	38.50			
Cc1nc2n(c(=O)c1CCN1CCC(c3noc4cc(F)ccc34)CC1)CCCC2O (centres unmarked) [Paliperidone, paliperidone]	1.58	8.60	8.54	k off (D2R): 0.0075 s⁻¹; k off (human D2L receptors [1]; [7]): 0.44 ± 0.04 min⁻¹; k on (human D2L receptors [1]; [7]): 1.80 ± 0.29 × 10^8 M^−1 min^−1
OCCN1CCN(CCCN2c3ccccc3Sc3ccc(Cl)cc32)CC1 [Perphenazine, perphenazine]	3.01	9.73	9.53	k off (human D2L receptors [1]; [7]): 0.23 ± 0.02 min⁻¹; k on (human D2L receptors [1]; [7]): 1.29 ± 0.17 × 10^9 M^−1 min^−1
OCCOCCN1CCN(C2=Nc3ccccc3Sc3ccccc32)CC1 [Quetiapine, quetiapine hemifumarate]				plasma half-life, in words [5]: short
CCN1CCC[C@H]1CNC(=O)c1c(O)c(Cl)cc(Cl)c1OC [Raclopride, raclopride]	1.31			
O=C1NCCN1CCN1CCC(c2cn(-c3ccc(F)cc3)c3ccc(Cl)cc23)CC1 [Sertindole, sertindole]	1.17			
O=C(CCCN1CCC2(CC1)C(=O)NCN2c1ccccc1)c1ccc(F)cc1 [Spiperone, spiperone]	18.24			
CN1CCN(CCCN2c3ccccc3Sc3ccc(C(F)(F)F)cc32)CC1 [Trifluoperazine, trifluoperazine dihydrochloride]	3.15	9.69	9.48	k off (human D2L receptors [4]): 0.22 ± 0.01 min⁻¹; k on (human D2L receptors [4]): 1.10 ± 0.20 × 10^9 M^−1 min^−1
O=C1Cc2cc(CCN3CCN(c4nsc5ccccc45)CC3)c(Cl)cc2N1 [Ziprasidone, ziprasidone hydrochloride monohydrate]	0.65			
CN(C)CCOC1=Cc2ccccc2Sc2ccc(Cl)cc21 [Zotepine, zotepine]	0.49			
O=C1CCc2ccc(OCCCCN3CCN(c4cccc(Cl)c4Cl)CC3)cc2N1 [aripiprazole]				propensity to cause prolactin release, in words [6]: very little propensity to cause prolactin release
(+)-butaclamol [(+)Butaclamol]				t 1/2 (human D2L receptors [4]): 26.65 min

Source: article PMC5624946, “Extrapyramidal side effects of antipsychotics are linked to their association kinetics at dopamine D2 receptors” (Nature Communications, 2017)
